Counter-ions that a name gives are not always drawn. Activity calls are given as the source filed them. No cut-off for these calls is given here.
Experiments:
Entamoeba histolytica [1] = experiment: Antiamoebic activity against Entamoeba histolytica NIH 200 after 72 hrs by microdilution technique; type: functional, organism-based; details: NIH 200, 72 h
KB = experiment: Cytotoxicity against human KB cells after 72 hrs; type: functional, cell-based
Plasmodium falciparum = experiment: Antiplasmodial activity against multi drug-resistant Plasmodium falciparum K1 in erythrocytes by [3H]hypoxanthine uptake; type: functional, organism-based
Entamoeba histolytica [2] = experiment: Antiamoebic activity against Entamoeba histolytica NIH 200 in guinea pig at 3 mg/kg, po; type: functional, organism-based; parameters: dose 3 mg/kg
Entamoeba histolytica [3] = experiment: Antiamoebic activity against Entamoeba histolytica NIH 200 in guinea pig at 2 mg/kg, iv; type: functional, organism-based; parameters: dose 2 mg/kg

Row | SMILES | IC50 (Entamoeba histolytica [1]) [µM] | IC50 (KB) [µM] | IC50 (Plasmodium falciparum) [µM] | Activity (Entamoeba histolytica [2]) | Activity (Entamoeba histolytica [3])
1 | COc1ccc2c(c1OC)CN(C)CCc1cc3c(cc1C(=O)C2)OCO3 [ALLOCRYPTOPINE] | 135 | > 338 | 5.08 |  | 
2 | COc1ccc2cc3[n+](cc2c1OC)CCc1cc2c(cc1-3)OCO2 [BERBERINE CHLORIDE] | 111 | 7.32 | 0.968 | Active | Active
3 | COc1ccc2c(c1OC)CN1CCc3cc4c(cc3[C@@H]1C2)OCO4 [CANADINE] | 126 | > 734 | > 147 |  | 
4 | COc1ccc2c(c1OC)-c1c(OC)c(OC)cc3c1[C@H](C2)NCC3 [CATALPIFOLINE] | 147 | > 733 | 24.1 |  | 
5 | COc1cc2c(cc1O)-c1cc3ccc(OC)c(OC)c3c[n+]1CC2 [COLUMBAMINE CHLORIDE] | 156 | 77.9 | 1.92 |  | 
6 | COc1cc2c3c(c1O)-c1c(ccc(OC)c1OC)C[C@@H]3N(C)CC2 [CORYDINE] | 90.6 | > 733 | 22.3 |  | 
7 | COc1cc2c(cc1O)CC[n+]1cc3cc(OC)c(OC)cc3cc1-2 [DEHYDRODISCRETINE CHLORIDE] | 66.9 | > 335 | 0.639 |  | 
8 | COc1cc2cc3c4c(c(OC)c5c(c4c2cc1OC)OCO5)CCN3C [DEHYDROOCOTEINE] | 136 | > 341 | 5.78 |  | 
9 | CC[C@H]1CN2CCc3cc(OC)c(OC)cc3[C@@H]2C[C@@H]1C[C@H]1NCCc2cc(OC)c(OC)cc21 [EMETINE HYDROCHLORIDE] | 2.23 |  |  |  | 
10 | COc1ccc2c(c1O)-c1c(OC)c(OC)cc3c1[C@H](C2)N(C)CC3 [ISOCORYDINE] | > 147 | > 733 | 37 |  | 
11 | COc1cc2c(cc1O)CC[n+]1cc3c(OC)c(OC)ccc3cc1-2 [JATRORRHIZINE CHLORIDE] | 82.7 | > 335 | 3.15 |  | 
12 | COc1ccc2c(c1O)-c1c(O)c(OC)cc3c1[C@H](C2)[N+](C)(C)CC3 [MAGNOFLORINE IODIDE] | 111 | > 533 | > 107 |  | 
13 | COc1ccc2c(c1OC)[C@]13CCC(=O)[C@]4(O)O[C@H]2C[C@]14N(C)CC3 [METAPHANINE HYDROBROMIDE] | 58.6 | > 586 | > 117 |  | 
14 | COc1cc2c3c(c1O)-c1c(ccc(OC)c1OC)C[C@@H]3NCC2 [NORCORYDINE] | 76.4 | > 733 | 3.08 |  | 
15 | COC1=C[C@]23CCN(C)[C@H](Cc4cc(OC)c(OC)cc42)C3=CC1=O [O-METHYLFLAVINANTINE] | 73.4 | > 734 | 207 |  | 
16 | COc1cc2c(cc1OC)-c1c3c(c(OC)c4c1[C@H](C2)N(C)CC4)OCO3 [OCOTEINE] | 51.2 | 74.3 | 34.8 |  | 
17 | COc1cc([C@@H]2c3cc4c(cc3[C@H](O)[C@H]3COC(=O)[C@H]23)OCO4)cc(OC)c1OC [PODOFILOX] |  | 0.008 |  |  | 
18 | COC1=C[C@]23CCN(C)[C@H](Cc4ccc(OC)c(O)c42)C3=CC1=O [SALUTARIDINE] | 76.4 | > 764 | > 95 |  | 
19 | COC1=C[C@@H]2[C@@H]3Cc4ccc(OC)c(O)c4[C@]2(CCN3C)CC1=O [SINOMENINE] | 56.2 | > 759 | > 152 |  | 
20 | COc1cc2c(cc1OC)-c1c3c(c(OC)c4ccnc(c14)C2=O)OCO3 [THALICMININE] | 75.1 | > 685 | 16.2 |  | 
21 | COc1c(O)ccc2cc3[n+](cc12)CCc1cc2c(cc1-3)OCO2 [THALIFENDINE] | 116 | > 699 | 7.91 |  | 

Source: ChEMBL document CHEMBL1155642, “In vitro antiplasmodial, antiamoebic, and cytotoxic activities of some monomeric isoquinoline alkaloids” (J Nat Prod, 2000)
